Broadly, the inhibition is the share of the control response that was lost under treatment. High values mean strong suppression, low ones little suppression.

Structures are written as SMILES.

The assay in a line: HCV replicon assay (luciferase reporter, ET cell line). As to conditions: Hepatitis C virus, HCV replicon luciferase activity in ET cells. Type of assay: cell-based. The gist of the method: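 EC50 and, via WST-1 cytotoxicity, TC50 were fitted with a Hill-coefficient equation to % inhibition across 10 two-fold dilutions. Compounds at 0.1 nM-[…] with 0.5% DMSO were applied 24 h post-seeding to replicon-bearing ET cells (luc-ubi-neo/NS3-5B, adaptive mutations). Firefly luciferase signal was measured after 48-72 h.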
A general note: A replicon is a self-replicating genome or part of one, used to study replication in cells.
`O=C(NCc1cccs1)c1cn2cc(-c3ccccc3)cc(C(F)(F)F)c2n1` [Compound 137, 6-Phenyl-8-trifluoromethyl-imidazo[1,2-a]pyridine-2-carboxylic Acid (thiophen-2-ylmethyl)-amide] showed an inhibition at 10 µM of 63%.

`O=C(c1nc2c(C(F)(F)F)cc(-c3cn[nH]c3)cn2c1Br)N1CC=C(c2nccs2)C1` [Compound 433, [3-Bromo-6-(1H-pyrazol-4-yl)-8-trifluoromethyl-imidazo[1,2-a]pyridin-2-yl]-(3-thiazol-2-yl-2,5-dihydro-pyrrol-1-yl)-methanone] returned an inhibition at 10 µM of 99.2%.

The molecule `O=C(NCC1CC1)c1nc2c(C(F)(F)F)cc(-c3ccco3)cn2c1Cl` [Compound 169, 3-Chloro-6-furan-2-yl-8-trifluoromethyl-imidazo[1,2-a]pyridine-2-carboxylic acid cyclopropylmethyl-amide] showed an inhibition at 10 µM of 50.3%.

Turning to `O=C(c1nc2c(C(F)(F)F)cc(-c3ccoc3)cn2c1Cl)N1CC=C(c2cscn2)CC1` [Compound 566], the inhibition at 10 µM turned out to be 99.4%.

The molecule `O=C(c1nc2c(C(F)(F)F)cc(-c3cccc(F)c3)cn2c1Br)N1CCC(c2ccccc2)C1` (centres unmarked) [Compound 368, [3-Bromo-6-(3-fluoro-phenyl)-8-trifluoromethyl-imidazo[1,2-a]pyridin-2-yl]-(3-phenyl-pyrrolidin-1-yl)-methanone] had an inhibition at 10 µM of 92.2%.

`O=C(NCc1ccccc1F)c1cc2cc(-c3ccccc3)cc(I)n2n1` [Compound 128, 7-Iodo-5-phenyl-pyrazolo[1,5-a]pyridine-2-carboxylic Acid 2-fluoro-benzylamide] gave an inhibition at 10 µM of 65.2%.

For `C=C(C)c1c(C(=O)NCc2cccs2)nc2c(C(F)(F)F)cc(-c3cccc(F)c3)cn12` [Compound 302, 6-(3-Fluoro-phenyl)-3-isopropenyl-8-trifluoromethyl-imidazo[1,2-a]pyridine-2-carboxylic Acid (thiophen-2-ylmethyl)-amide], the inhibition at 10 µM was 69.5%.

Regarding `CC(C)c1cc(-c2ccccc2)cn2c(Br)c(C(=O)NCc3cccs3)nc12` [Compound 645, 3-Bromo-8-isopropyl-6-phenyl-imidazo[1,2-a]pyridine-2-carboxylic acid (thiophen-2-ylmethyl)-amide], the inhibition at 10 µM was 87.1%.

In the case of `O=C(c1nc2c(C(F)(F)F)cc(-c3ccoc3)cn2c1Cl)N1CCCC(c2cccc(F)c2)C1` (centres unmarked) [Compound 549, (3-Chloro-6-furan-3-yl-8-trifluoromethyl-imidazo[1,2-a]pyridin-2-yl)-[3-(3-fluoro-phenyl)-piperidin-1-yl)-methanone], 10 µM produced 94.3% inhibition.

`O=C(c1nc2c(C(F)(F)F)cc(-c3ccoc3)cn2c1Cl)N1CCCC(c2ccccc2F)C1` (centres unmarked) [Compound 547, (3-Chloro-6-furan-3-yl-8-trifluoromethyl-imidazo[1,2-a]pyridin-2-yl)-[3-(2-fluoro-phenyl)-piperidin-1-yl)-methanone] returned an inhibition at 10 µM of 94.7%.

The molecule `Cn1cc(C2=CCN(C(=O)c3nc4c(C(F)(F)F)cc(-c5ccoc5)cn4c3Cl)CC2)cn1` [Compound 578, (3-Chloro-6-furan-3-yl-8-trifluoromethyl-imidazo[1,2-a]pyridin-2-yl)-[4-(1-methyl-1H-pyrazol-4-yl)-3,6-dihydro-2H-pyridin-1-yl)-methanone] had an inhibition at 10 µM of 97.2%.

Consider `O=C(NCCc1ccccc1)c1nc2c(C(F)(F)F)cc(-c3ccco3)cn2c1Cl` [Compound 321, 3-Chloro-6-furan-2-yl-8-trifluoromethyl-imidazo[1,2-a]pyridine-2-carboxylic Acid phenethyl-amide], for which the inhibition at 10 µM worked out at 78.2%.

Consider `Cc1nc(C)c(-c2cc(C(F)(F)F)c3nc(C(=O)NCc4cccs4)c(Cl)n3c2)s1` [Compound 289, 3-Chloro-6-(2,4-dimethyl-thiazol-5-yl)-8-trifluoromethyl-imidazo[1,2-a]pyridine-2-carboxylic Acid (thiophen-2-ylmethyl)-amide], for which 10 µM produced 30.3% inhibition.

The molecule `O=C(c1nc2c(C(F)(F)F)cc(-c3cn[nH]c3)cn2c1Br)N1CCC(c2ccccc2)C1` (centres unmarked) [Compound 461, (3-Bromo-6-(1H-pyrazol-4-yl)-8-trifluoromethyl-imidazo[1,2-a]pyridin-2-yl)-(3-phenyl-pyrrolidin-1-yl)-methanone] had an inhibition at 10 µM of 94.3%.

`O=C(NCCc1cccs1)c1nc2c(C(F)(F)F)cc(-c3ccco3)cn2c1Cl` [Compound 185, 3-Chloro-6-furan-2-yl-8-trifluoromethyl-imidazo[1,2-a]pyridine-2-carboxylic acid (2-thiophen-2-yl-ethyl)-amide] showed an inhibition at 10 µM of 95.7%.

`O=C(c1nc2c(C(F)(F)F)cc(-c3ccoc3)cn2c1Cl)N1CC=C(c2ccoc2)CC1` [Compound 575, (3-Chloro-6-furan-3-yl-8-trifluoromethyl-imidazo[1,2-a]pyridine-2-yl)-(4-furan-3-yl-3,6-dihydro-2H-pyridin-1-yl)-methanone] returned an inhibition at 10 µM of 94.3%.

With `CC(NC(=O)c1nc2c(C(F)(F)F)cc(-c3ccco3)cn2c1Cl)c1cccs1` (centres unmarked) [Compound 162, 3-Chloro-6-furan-2-yl-8-trifluoromethyl-imidazo[1,2-a]pyridine-2-carboxylic acid (1-thiophen-2-yl-ethyl)-amide], the inhibition at 10 µM amounted to 44.2%.

For the molecule `O=C(NCc1cccs1)c1nn2c(Br)cc(-c3ccccc3)cc2c1Br` [Compound 113, 3,7-dibromo-5-phenyl-pyrazolo[1,5-a]pyridine-2-carboxylic Acid (thiophen-2-ylmethyl)-amide], the inhibition at 10 µM was determined as 77.3%.

In turn, `CN(C)CCOc1ccc(CNC(=O)c2nc3c(C(F)(F)F)cc(-c4ccco4)cn3c2Cl)cc1` [Compound 214, 3-Chloro-6-furan-2-yl-8-trifluoromethyl-imidazo[1,2-a]pyridine-2-carboxylic Acid 4-(2-dimethylamino-ethoxy)-benzylamide] came in with an inhibition at 10 µM of 49%.

On to `O=C(NCc1ccsc1)c1nc2c(C(F)(F)F)cc(-c3ccco3)cn2c1Cl` [Compound 173, 3-Chloro-6-furan-2-yl-8-trifluoromethyl-imidazo[1,2-a]pyridine-2-carboxylic acid (thiophen-3-ylmethyl)-amide], for which 10 µM produced 95.2% inhibition.

In turn, `C[C@H](CNC(=O)c1nc2c(C(F)(F)F)cc(-c3ccoc3)cn2c1Cl)c1ccccc1` [Compound 414, 3-Chloro-6-furan-3-yl-8-trifluoromethyl-imidazo[1,2-a]pyridine-2-carboxylic Acid (2-phenyl-propyl)-amide] came in with an inhibition at 10 µM of 76.3%.

Molecule `O=C(Cc1cn2cc(-c3ccoc3)cc(C(F)(F)F)c2n1)NCc1cccs1` [Compound 650, 2-[6-(furan-3-yl)-8-(trifluoromethyl)imidazo[1,2-a]pyridin-2-yl]-N-(thiophen-2-ylmethyl)acetamide] showed an inhibition at 10 µM of 65.7%.

`CC(=O)NCc1c(-c2ccoc2)cc(C(F)(F)F)c2nc(C(=O)N3CCC(c4cccc(F)c4)C3)cn12` (centres unmarked) [Compound 637, N-{[2-{[3-(3-fluorophenyl)pyrrolidin-1-yl]carbonyl}-6-(furan-3-yl)-8-(trifluoromethyl)imidazo[1,2-a]pyridin-5-yl]methyl}acetamide] displayed an inhibition at 10 µM of 60.8%.

In turn, `O=C(c1nc2c(C(F)(F)F)cc(-c3ccoc3)cn2c1Cl)N1CC=C(c2ncc(CO)s2)CC1` [Compound 573, (3-Chloro-6-furan-3-yl-8-trifluoromethyl-imidazo[1,2-a]pyridine-2-yl)-[4-(5-hydroxymethyl-thiazol-2-yl)-3,6-dihydro-2H-pyridin-1-yl]-methanone] showed an inhibition at 10 µM of 91.2%.

Turning to `COc1ccc(CNC(=O)c2nc3c(C(F)(F)F)cc(-c4ccco4)cn3c2Cl)cc1` [Compound 192, 3-Chloro-6-furan-2-yl-8-trifluoromethyl-imidazo[1,2-a]pyridine-2-carboxylic acid 4-methoxy-benzylamide], the inhibition at 10 µM worked out at 73.9%.

In turn, `O=C(NCc1cccs1)c1cc2cc(-c3ccccc3)cc(I)n2n1` [Compound 102, 7-Iodo-5-phenyl-pyrazolo[1,5-a]pyridine-2-carboxylic Acid (thiophen-2-ylmethyl)-amide] registered an inhibition at 10 µM of 81%.

Consider `O=C(c1nc2c(C(F)(F)F)cc(-c3ccco3)cn2c1Cl)N1CCC(c2ccc(F)cc2)C1` (centres unmarked) [Compound 316, (3-Chloro-6-furan-2-yl-8-trifluoromethyl-imidazo[1,2-a]pyridin-2-yl)-[3-(4-fluoro-phenyl)-pyrrolidin-1-yl]-methanone], for which the inhibition at 10 µM came to 89.2%.

On to `CCCCCc1nc(-c2cc(-c3ccoc3)cn3c(Cl)c(C(=O)NCc4cccs4)nc23)no1` [Compound 375, 3-Chloro-6-furan-3-yl-8-(5-pentyl-[1,2,4]oxadiazol-3-yl)-imidazo[1,2-a]pyridine-2-carboxylic Acid (thiophen-2-ylmethyl)-amide], for which testing at 10 µM gave an inhibition of 35.4%.

Take `O=C(c1nc2c(C(F)(F)F)cc(-c3ccoc3)cn2c1Cl)N1CCC(c2ccccc2)C1` (centres unmarked) [Compound 260, (3-Chloro-6-furan-3-yl-8-trifluoromethyl-imidazo[1,2-a]pyridin-2-yl)-(3-phenyl-pyrrolidin-1-yl)-methanone]: at 10 µM the inhibition was 96%.

`O=C(c1nc2c(C(F)(F)F)cc(-c3ccoc3)cn2c1Cl)N1CC=C(c2ccc(F)nc2F)CC1` [Compound 617, (3-Chloro-6-furan-3-yl-8-trifluoromethyl-imidazo[1,2-a]pyridin-2-yl)-(2,6-difluoro-3′,6′-dihydro-2′H-[3,4′]bipyridinyl-1′-yl)-methanone] gave an inhibition at 10 µM of 95%.

`O=C(NCc1cccs1)c1nc2c(C(F)(F)F)cc(-c3ccc(F)cc3)cn2c1Cl` [Compound 178, 3-Chloro-6-(4-fluoro-phenyl)-8-trifluoromethyl-imidazo[1,2-a]pyridine-2-carboxylic acid (thiophen-2-ylmethyl)-amide]: testing at 10 µM gave an inhibition of 75.2%.

Molecule `O=C(NCc1ccccc1F)c1nc2c(C(F)(F)F)cc(-c3ccco3)cn2c1Cl` [Compound 201, 3-Chloro-6-furan-2-yl-8-trifluoromethyl-imidazo[1,2-a]pyridine-2-carboxylic acid 2-fluoro-benzylamide] yielded an inhibition at 10 µM of 72.4%.

For the origin of these results see patent publication US20120121540A1 (priority 2007, published 2012).
